Laboratory results published in PubChem BioAssay AID504508 (Sanford-Burnham Center for Chemical Genomics, 2011).

Tested on: 697 B-cell NF-kB luciferase reporter, PMA/ionomycin, 16 h
Assay: inhibitors of antigen receptor-driven NF-kB signaling, SAR follow-up, B-cell specific, 697 cells, luminescence, set 2 (AID 504508)

Row | Compound | IC50 [nM]
1 | CCCCc1ccc(-c2noc(CCC(=O)NC)n2)cc1 | 110
2 | CCCOc1ccc(-c2nc(CSCC(=O)NCc3ccco3)c(C)o2)cc1 | 90
3 | CC(C)c1ccc(-c2noc(CCC(=O)NC3CC3)n2)cc1 | 250
4 | CCCCc1ccc(-c2noc(CCC(=O)NCC)n2)cc1 | 130
5 | CCCOc1ccc(-c2nc(CSCC(=O)NC3CC3)c(C)o2)cc1 | 90

The remaining lines, values ahead:

Row | IC50 [nM] | Compound
6 | 50 | CCOc1ccc(-c2nc(CSCC(=O)O)c(C)o2)cc1
7 | 80 | CCCCOc1ccc(-c2nc(CSCC(=O)O)c(C)o2)cc1
8 | 40 | CCCOc1ccc(-c2nc(CSCC(=O)O)c(C)o2)cc1
9 | 190 | Cc1oc(-c2ccc(OC(F)(F)F)cc2)nc1CSCC(=O)O
10 | 80 | CCOc1ccc(-c2nc(CSCC(N)=O)c(C)o2)cc1
11 | 60 | C#CCNC(=O)CSCc1nc(-c2ccc(OCC)cc2)oc1C
